For one experiment, the target named is EZH1 (Homo sapiens, UniProt Q92800). The experiment in a line: AlphaLISA enzyme activity inhibition, EZH1. The experiment is classed as biochemical. Particulars: for inhibition at 0.005 µM: 5nM test substance; for inhibition at 0.01 µM: 10nM test substance. In a few lines: (§1)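 EZH1 or EZH2 was mixed with compound at 5 nM or 10 nM final in 20 mM Tris pH 8.0, 0.1% BSA, 0.5 mM DTT, then histone H3 peptide and SAM were added. After 2 h reaction, AlphaLISA acceptor and donor beads detected methylation; inhibition rate was calculated against DMSO control.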

Another experiment relates to MIA-PaCa-2 cells. Description: Cancer cell proliferation inhibition (Cell Counting Kit-8), pancreatic cancer cell line. The experiment is classed as cell-based. Conditions: Homo sapiens, MIA PaCa-2, 264 h, 1000 nM, cultured seven to 11 days; read-out: % inhibition rate MIA-Paca2. The method, boiled down:
(§2)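 Single-concentration growth test: compound at 1000 nM was applied to cells seeded at 100 to 1,000 per well and cultured seven to 11 days. Proliferation was then quantified with Cell Counting Kit-8, and percent inhibition was taken relative to control wells.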
(Formazan colour is commonly taken as a measure of viable cells.)

Another experiment deals with G401 cells. Description: Cancer cell proliferation inhibition (Cell Counting Kit-8), rhabdoid tumor cell line. Format: cell-based. Particulars: 1000 nM, cultured seven to 11 days; for % inhibition rate G401: 1 µM; for inhibition at 1 µM: Homo sapiens, G-401, 264 h, read-out: % inhibition rate G401. In a few lines: (§3)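 Cells grown in RPMI1640, McCoy's 5a, L-15 or DMEM with 10% FBS, seeded at 100 to 1,000 cells/well and treated with test substance at 1000 nM for 7 to 11 days. Viability read by CCK-8; % inhibition = {1−(test/control)} × 100.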

In the next experiment the test system is Lovo cells. Description: Cancer cell proliferation inhibition (Cell Counting Kit-8), colorectal cancer cell line. The experiment is classed as cell-based. Conditions: 1000 nM, cultured seven to 11 days; for % inhibition rate LoVo: 1 µM; for inhibition at 1 µM: Homo sapiens, LoVo, 264 h, read-out: % inhibition rate LoVo. In a few lines:
as §2

The test system of the next experiment is NCI-H1299 cells. Description: Cancer cell proliferation inhibition (Cell Counting Kit-8), lung cancer cell line. Particulars: Homo sapiens, NCI-H1299, 264 h, 1000 nM, cultured seven to 11 days; read-out: % inhibition rate NCI-H129 9. The experiment is classed as cell-based. The method, boiled down:
as §2

The next experiment has as its system MKN-45 cells. The experiment in a line: Cancer cell proliferation inhibition (Cell Counting Kit-8), gastric cancer cell line. The experiment is classed as cell-based. Conditions: Homo sapiens, MKN-45, 264 h, 1000 nM, cultured seven to 11 days; read-out: % inhibition rate MKN -45. The method, boiled down:
as §3

The test system of a further experiment is SW-13 cells. Description: Cancer cell proliferation inhibition (Cell Counting Kit-8), adrenal cancer cell line. The experiment is classed as cell-based. Particulars: Homo sapiens, SW13, 264 h, 1000 nM, cultured seven to 11 days; read-out: % inhibition rate SW-13. The method, boiled down:
as §2

For a further experiment, the target named is EZH2 (Homo sapiens, UniProt Q15910). Description: AlphaLISA enzyme activity inhibition, EZH2. The experiment is classed as biochemical. Conditions: for inhibition at 0.005 µM: 5nM test substance; for inhibition at 0.01 µM: 10nM test substance. The method, boiled down:
as §1
On the technique in general: Alpha assays give light when donor and acceptor beads are brought close together.

This is an account of results in patent EP4740948A1 (Dong Wha Pharm. Co., Ltd., priority 2023, dated 2025).

Counter-ions that a name gives are not always drawn. Bounds are passed on as bounds.

One may read the inhibition as the share of the control response that was lost under treatment.

EZH2, sequence (Q15910 whole entry, species assumed): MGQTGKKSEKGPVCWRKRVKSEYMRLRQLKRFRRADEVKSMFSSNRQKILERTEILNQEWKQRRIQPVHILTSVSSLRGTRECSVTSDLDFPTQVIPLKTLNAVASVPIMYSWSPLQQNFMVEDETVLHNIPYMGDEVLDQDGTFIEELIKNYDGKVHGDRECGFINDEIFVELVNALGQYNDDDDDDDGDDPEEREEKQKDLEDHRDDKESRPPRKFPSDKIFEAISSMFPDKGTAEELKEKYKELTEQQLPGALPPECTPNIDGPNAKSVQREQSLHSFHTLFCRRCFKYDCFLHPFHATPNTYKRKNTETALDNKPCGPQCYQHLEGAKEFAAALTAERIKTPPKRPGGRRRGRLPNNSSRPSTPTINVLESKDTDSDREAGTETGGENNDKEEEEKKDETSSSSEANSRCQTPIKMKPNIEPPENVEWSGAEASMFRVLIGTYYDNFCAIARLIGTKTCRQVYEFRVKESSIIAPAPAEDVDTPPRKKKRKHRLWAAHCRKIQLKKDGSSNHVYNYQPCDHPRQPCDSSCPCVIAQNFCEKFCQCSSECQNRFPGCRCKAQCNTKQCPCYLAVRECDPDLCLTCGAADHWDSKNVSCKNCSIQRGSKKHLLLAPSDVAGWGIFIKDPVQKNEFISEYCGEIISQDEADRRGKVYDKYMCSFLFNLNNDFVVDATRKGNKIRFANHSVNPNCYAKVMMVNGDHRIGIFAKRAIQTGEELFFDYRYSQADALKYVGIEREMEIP
EZH2, sequence (O75530 whole entry partner, species assumed): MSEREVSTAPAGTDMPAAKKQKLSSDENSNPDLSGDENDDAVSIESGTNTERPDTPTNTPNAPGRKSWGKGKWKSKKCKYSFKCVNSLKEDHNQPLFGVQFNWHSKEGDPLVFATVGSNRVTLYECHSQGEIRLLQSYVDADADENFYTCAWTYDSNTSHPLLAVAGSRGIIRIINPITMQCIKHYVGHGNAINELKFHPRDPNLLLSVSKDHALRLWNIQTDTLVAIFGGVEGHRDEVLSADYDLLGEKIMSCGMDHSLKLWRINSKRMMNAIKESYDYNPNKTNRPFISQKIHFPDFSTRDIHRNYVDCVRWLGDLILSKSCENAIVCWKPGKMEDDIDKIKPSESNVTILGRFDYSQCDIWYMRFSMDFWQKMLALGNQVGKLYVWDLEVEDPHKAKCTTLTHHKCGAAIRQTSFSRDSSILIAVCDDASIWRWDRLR
EZH2, sequence (Q15022 whole entry partner, species assumed): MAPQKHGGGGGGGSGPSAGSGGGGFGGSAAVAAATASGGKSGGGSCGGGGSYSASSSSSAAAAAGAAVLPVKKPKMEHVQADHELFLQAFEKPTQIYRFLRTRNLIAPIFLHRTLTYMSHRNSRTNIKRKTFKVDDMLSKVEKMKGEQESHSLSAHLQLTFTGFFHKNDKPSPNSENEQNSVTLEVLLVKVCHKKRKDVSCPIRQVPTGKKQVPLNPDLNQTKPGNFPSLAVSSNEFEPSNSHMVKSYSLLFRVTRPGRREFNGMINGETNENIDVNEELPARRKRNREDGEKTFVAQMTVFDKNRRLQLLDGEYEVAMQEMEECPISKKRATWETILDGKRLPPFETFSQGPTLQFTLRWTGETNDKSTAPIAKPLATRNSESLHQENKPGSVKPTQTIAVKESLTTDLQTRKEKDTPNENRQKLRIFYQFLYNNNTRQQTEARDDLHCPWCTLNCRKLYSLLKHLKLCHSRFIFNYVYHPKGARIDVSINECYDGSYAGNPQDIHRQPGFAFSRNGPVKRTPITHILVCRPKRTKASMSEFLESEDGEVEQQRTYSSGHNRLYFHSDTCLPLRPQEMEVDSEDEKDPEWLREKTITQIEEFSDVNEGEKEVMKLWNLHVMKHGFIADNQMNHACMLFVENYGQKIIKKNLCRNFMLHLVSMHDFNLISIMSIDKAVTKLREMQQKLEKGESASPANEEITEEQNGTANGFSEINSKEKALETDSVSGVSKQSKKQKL
EZH1, sequence (Q92800 whole entry, species assumed): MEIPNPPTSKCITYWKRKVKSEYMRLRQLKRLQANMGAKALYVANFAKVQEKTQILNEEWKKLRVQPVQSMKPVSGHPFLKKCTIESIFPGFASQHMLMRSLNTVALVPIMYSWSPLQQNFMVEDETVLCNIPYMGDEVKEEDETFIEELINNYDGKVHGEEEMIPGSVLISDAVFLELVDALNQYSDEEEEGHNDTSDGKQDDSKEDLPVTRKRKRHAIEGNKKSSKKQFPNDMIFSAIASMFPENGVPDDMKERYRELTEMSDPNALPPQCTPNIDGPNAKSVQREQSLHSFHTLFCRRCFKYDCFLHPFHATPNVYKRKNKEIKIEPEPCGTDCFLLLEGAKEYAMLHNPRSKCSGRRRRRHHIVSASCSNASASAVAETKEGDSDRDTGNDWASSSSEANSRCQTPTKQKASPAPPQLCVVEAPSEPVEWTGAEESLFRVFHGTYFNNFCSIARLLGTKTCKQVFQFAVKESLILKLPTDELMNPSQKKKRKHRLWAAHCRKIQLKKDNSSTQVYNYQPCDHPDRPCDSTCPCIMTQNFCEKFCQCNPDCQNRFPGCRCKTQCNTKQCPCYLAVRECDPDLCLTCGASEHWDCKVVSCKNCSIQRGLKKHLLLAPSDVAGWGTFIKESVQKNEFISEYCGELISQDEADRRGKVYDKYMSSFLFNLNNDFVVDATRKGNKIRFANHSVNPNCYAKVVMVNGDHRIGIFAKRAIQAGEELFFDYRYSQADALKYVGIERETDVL
EZH1, sequence (O75530 whole entry partner, species assumed): as the sequence (O75530 whole entry partner, species assumed) above
EZH1, sequence (Q15022 whole entry partner, species assumed): as the sequence (Q15022 whole entry partner, species assumed) above

With `CCN1CCN(c2ncc(-c3cc(C(=O)NCc4c(SC)cc(C)[nH]c4=O)c(C)c4c3OC(C)(C3CCN(CC(F)(F)F)CC3)O4)cn2)CC1` (single isomer, unassigned) [Compound 76, 7-(2-(4-ethylpiperazin-1-yl)pyrimidin-5-yl)-2,4-dimethyl-N-((6-methyl-4-(methylthio)-2-oxo-1,2-dihydropyridin-3-yl)methyl)-2-(1-(2,2,2-trifluoroethyl)piperidin-4-yl)benzo[d][1,3]dioxole-5-carboxamide], the inhibition at 0.005 µM on EZH1 stood at 79%; on EZH2, 99.5%. Also, the results for the inhibition at 0.01 µM on EZH1 and against EZH2 were 96.2% and 99.6%, respectively. For the same molecule, the inhibition at 1 µM in the experiment on MIA-PaCa-2 cells was not above 30%; in the experiment on NCI-H1299 cells it was not above 30%; in the experiment on MKN-45 cells it was 30 to 70%; with SW-13 cells, 30 to 70%. Besides, in the experiment with G401 cells, the “% inhibition rate G401” value is “+++ (+++: ≥70%)”. Also, the “% inhibition rate LoVo” value with Lovo cells is recorded as “+++ (+++: ≥70%)”.

Regarding `CSc1cc(C)[nH]c(=O)c1CNC(=O)c1cc(-c2ccc(N3C[C@@H](C)O[C@@H](C)C3)nc2)c2c(c1C)OC(C)([C@H]1CC[C@H](N(C)C[C@H](C)O)CC1)O2` (stereo partly drawn) [Compound 29, 7-(6-((2S,6R)-2,6-dimethylmorpholino)pyridin-3-yl)-2-(trans-4-(((S)-2-hydroxypropyl)(methyl)amino)cyclohexyl)-2,4-dimethyl-N-((6-methyl-4-(methylthio)-2-oxo-1,2-dihydropyridin-3-yl)methyl)benzo[d][1,3]dioxole-5-carboxamide], the inhibition at 0.005 µM against EZH1 is 91.6%; at EZH2, 98.3%. Besides, the inhibition at 1 µM was not above 30% in the experiment with MIA-PaCa-2 cells; 30 to 70% in the experiment on G401 cells; not below 70% in the experiment with Lovo cells; not above 30% with NCI-H1299 cells; not above 30% with MKN-45 cells; 30 to 70% in the experiment with SW-13 cells.

With `CSc1cc(C)[nH]c(=O)c1CNC(=O)c1cc(-c2cnc(N3CCC4(CC3)COC4)nc2)c2c(c1C)OC(C)([C@H]1CC[C@H](N(C)C)CC1)O2` (relative stereo) [Compound 15, 7-(2-(2-oxa-7-azaspiro[3.5]nonan-7-yl)pyrimidin-5-yl)-2-(trans-4-(dimethylamino)cyclohexyl)-2,4-dimethyl-N-((6-methyl-4-(methylthio)-2-oxo-1,2-dihydropyridin-3-yl)methyl)benzo[d][1,3]dioxole-5-carboxamide], the figures for the inhibition at 0.005 µM on EZH1 and on EZH2 were 94.5% and 99.8%, respectively. Further, the inhibition at 1 µM is not above 30% in the experiment on MIA-PaCa-2 cells; 30 to 70% in the experiment with G401 cells; not below 70% with Lovo cells; not above 30% with NCI-H1299 cells; 30 to 70% in the experiment on MKN-45 cells; 30 to 70% in the experiment on SW-13 cells.

In the case of `CSc1cc(C)[nH]c(=O)c1CNC(=O)c1cc(-c2ccc(N3C[C@@H](C)O[C@@H](C)C3)nc2)c2c(c1C)OC(C)([C@H]1CC[C@H](N(C)CC(F)F)CC1)O2` (stereo partly shown) [Compound 109], the inhibition at 0.005 µM against EZH1 was determined as 22%; against EZH2, 52.4%. Further, the values for the inhibition at 0.01 µM against EZH1 and against EZH2 were 35.2% and 91.6%, respectively. Besides, the inhibition at 1 µM was not above 30% in the experiment on MIA-PaCa-2 cells; not below 70% in the experiment on G401 cells; not below 70% in the experiment with Lovo cells; not above 30% in the experiment with NCI-H1299 cells; 30 to 70% in the experiment on MKN-45 cells; 30 to 70% with SW-13 cells.

As to `CSc1cc(C)[nH]c(=O)c1CNC(=O)c1cc(-c2ccc(Cl)s2)c2c(c1C)OC(C)([C@H]1CC[C@H](N(C)C)CC1)O2` (relative stereo) [Compound 19, 7-(5-chlorothiophen-2-yl)-2-(trans-4-(dimethylamino)cyclohexyl)-2,4-dimethyl-N-((6-methyl-4-(methylthio)-2-oxo-1,2-dihydropyridin-3-yl)methyl)benzo[d][1,3]dioxole-5-carboxamide], the inhibition at 0.005 µM on EZH1 stood at 78.7%; on EZH2 it was 98.7%. Moreover, the inhibition at 1 µM in the experiment on MIA-PaCa-2 cells is not above 30%; in the experiment on G401 cells, 30 to 70%; with Lovo cells, not below 70%; in the experiment with NCI-H1299 cells, not above 30%; in the experiment with MKN-45 cells, 30 to 70%; in the experiment on SW-13 cells, 30 to 70%.

For the molecule `CSc1cc(C)[nH]c(=O)c1CNC(=O)c1cc(-c2ccc(N3C[C@@H](C)O[C@@H](C)C3)nc2)c2c(c1C)OC(C)(C1CCN(C3CCCCC3)CC1)O2` (single isomer, unassigned) [Compound 53], the inhibition at 0.005 µM on EZH1 came to 78.3%; against EZH2, 98.5%. Moreover, the inhibition at 0.01 µM against EZH1 is 91.6%; against EZH2, 99.6%. For the same molecule, the inhibition at 1 µM with MIA-PaCa-2 cells is not above 30%; with NCI-H1299 cells, 30 to 70%; with MKN-45 cells it was not above 30%; in the experiment on SW-13 cells, 30 to 70%. In the experiment with G401 cells, the “% inhibition rate G401” value is given as “+++ (+++: ≥70%)”. The “% inhibition rate LoVo” value with Lovo cells is listed as “+++ (+++: ≥70%)”.

With `CCN1CCC(C2(C)Oc3c(-c4ccc(N5C[C@@H](C)O[C@@H](C)C5)nc4)cc(C(=O)NCc4c(SC)cc(C)[nH]c4=O)c(C)c3O2)CC1` (single isomer, unassigned) [Compound 49], the results for the inhibition at 0.005 µM against EZH1 and on EZH2 were 78.8% and 99.2%, respectively. The inhibition at 0.01 µM against EZH1 came to 92.4%; against EZH2, 99.5%. For the same molecule, the inhibition at 1 µM in the experiment with MIA-PaCa-2 cells is not above 30%; with G401 cells it was 30 to 70%; with NCI-H1299 cells, 30 to 70%; with MKN-45 cells it was not above 30%; in the experiment with SW-13 cells, 30 to 70%. Besides, in the experiment with Lovo cells, the “% inhibition rate LoVo” value is listed as “+++ (+++: ≥70%)”.

As to `CSc1cc(C)[nH]c(=O)c1CNC(=O)c1cc(-c2ccc3c(c2)OC(F)(F)O3)c2c(c1C)OC(C)(C1CCN(CC(F)(F)F)CC1)O2` (stereo not shown) [Compound 93, 2',2'-difluoro-2,7-dimethyl-N-((6-methyl-4-(methylthio)-2-oxo-1,2-dihydropyridin-3-yl)methyl)-2-(1-(2,2,2-trifluoroethyl)piperidin-4-yl)-[4,5'-bibenzo[d][1,3]dioxole]-6-carboxamide], the results for the inhibition at 0.005 µM against EZH1 and against EZH2 were 16.8% and 32.2%, respectively. The inhibition at 0.01 µM at EZH1 came out at 12.7%; at EZH2 it was 37.9%. In addition, the inhibition at 1 µM with MIA-PaCa-2 cells was not above 30%; in the experiment with G401 cells it was not above 30%; with Lovo cells it was not below 70%; in the experiment on NCI-H1299 cells, not above 30%; with MKN-45 cells, not above 30%; in the experiment with SW-13 cells, 30 to 70%.

Regarding `CCN1CCC(C2(C)Oc3c(-c4cnc(N5CCOCC5)nc4)cc(C(=O)NCc4c(SC)cc(C)[nH]c4=O)c(C)c3O2)CC1` (single isomer, unassigned) [Compound 73, 2-(1-ethylpiperidin-4-yl)-2,4-dimethyl-N-((6-methyl-4-(methylthio)-2-oxo-1,2-dihydropyridin-3-yl)methyl)-7-(2-morpholinopyrimidin-5-yl)benzo[d][1,3]dioxole-5-carboxamide], the inhibition at 0.005 µM stood at 75.7% against EZH1 and 99.2% on EZH2. Also, the values for the inhibition at 0.01 µM at EZH1 and on EZH2 were 88% and 99.5%, respectively. Moreover, the inhibition at 1 µM was not above 30% in the experiment with MIA-PaCa-2 cells; 30 to 70% in the experiment with Lovo cells; not above 30% in the experiment on NCI-H1299 cells; 30 to 70% in the experiment with MKN-45 cells; 30 to 70% in the experiment on SW-13 cells. The “% inhibition rate G401” value in the experiment with G401 cells is reported as “+++ (+++: ≥70%)”.

With `CSc1cc(C)[nH]c(=O)c1CNC(=O)c1cc(-c2ccc(N3C[C@@H](C)O[C@@H](C)C3)nc2)c2c(c1C)OC(C)([C@H]1CC[C@H](N)CC1)O2` (stereo partly drawn) [Compound 100, 2-(trans-4-aminocyclohexyl)-7-(6-((2S,6R)-2,6-dimethylmorpholino)pyridin-3-yl)-2,4-dimethyl-N-((6-methyl-4-(methylthio)-2-oxo-1,2-dihydropyridin-3-yl)methyl)benzo[d][1,3]dioxole-5-carboxamide hydrochloride], the inhibition at 0.005 µM at EZH1 stood at 30%; at EZH2 it was 96.3%. The inhibition at 0.01 µM against EZH1 was 68.1%; against EZH2, 100%. The inhibition at 1 µM with MIA-PaCa-2 cells was not above 30%; with G401 cells, not below 70%; in the experiment on Lovo cells it was not above 30%; with NCI-H1299 cells, not above 30%; in the experiment with MKN-45 cells, 30 to 70%; in the experiment on SW-13 cells it was 30 to 70%.
